Measured values reported in patent US12655116B2, “Substituted isophthalic acid diamides” (Bayer Aktiengesellschaft, priority 2020, dated 2026).

What was measured:
ABUTH [1] = test: Pre-emergence herbicidal action against ABUTH; assay type: in vivo, Abutilon theophrasti; details: Abutilon theophrasti, 504 h; for pest or weed control at 80 g/ha: scored visually after 3 weeks vs untreated controls (100% = plants have died, 0% = like control plants); for pest or weed control at 20 g/ha: dosage 20 g/ha, scored visually after 3 weeks vs untreated controls, read-out: Pre-emergence action against ABUTH (herbicidal activity in percent); for pest or weed control at 20 g/ha / pest or weed control at 320 g/ha: 100% = plants have died, 0% = like control plants; for pest or weed control at 320 g/ha: Dosage: 320 g/ha, scored visually after 3 weeks
In short: (§1)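 Sandy loam pots, seeds covered with soil, then surface-treated with WP or EC formulations at 600–800 l/ha water plus 0.2% wetting agent. Greenhouse, 3 weeks. Percent damage vs untreated controls.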

LOLRI = test: Pre-emergence herbicidal action against LOLRI; assay type: in vivo, Lolium rigidum; details: Lolium rigidum, 504 h
In short: as §1

PHBPU = test: Post-emergence herbicidal action against PHBPU; assay type: in vivo, Pharbitis purpurea; details: Ipomoea purpurea, 504 h; for pest or weed control at 20 g/ha: dosage 20 g/ha; for pest or weed control at 80 g/ha: dosage 80 g/ha
In short: (§2)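 Visual % rating (0% = as untreated, 100% = dead) ~3 wk after spraying one-leaf-stage plants grown in sandy loam; WP/EC in water at 600–800 l/ha, 0.2% wetting agent.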

AVEFA [2] = test: Pre-emergence herbicidal action against AVEFA; assay type: in vivo, Avena fatua; details: Avena fatua, 504 h, pre-emergence
In short: as §1

VERPE [3] = test: Pre-emergence herbicidal action against VERPE; assay type: in vivo, Veronica persica; details: Veronica persica, 504 h; for pest or weed control at 80 g/ha: dosage 80 g/ha; for pest or weed control at 320 g/ha: dosage 320 g/ha
In short: as §1

MATIN [4] = test: Post-emergence herbicidal action against MATIN; assay type: in vivo, Matricaria inodora; details: Tripleurospermum inodorum, 504 h; for pest or weed control at 20 g/ha: dosage 20 g/ha; for pest or weed control at 80 g/ha: dosage 80 g/ha
In short: as §2

MATIN [5] = test: Pre-emergence herbicidal action against MATIN; assay type: in vivo, Matricaria inodora; details: Tripleurospermum inodorum, 504 h; for pest or weed control at 80 g/ha: dosage 80 g/ha; for pest or weed control at 320 g/ha: dosage 320 g/ha
In short: as §1

POLCO [6] = test: Post-emergence herbicidal action against POLCO; assay type: in vivo, Polygonum convolvulus; details: Fallopia convolvulus, 504 h
In short: as §2

AVEFA [7] = test: Post-emergence herbicidal action against AVEFA; assay type: in vivo, Avena fatua; details: Avena fatua, 504 h, visual assessment about 3 weeks after treatment, 100% = plants have died, 0% = like control plants
In short: as §2

HORMU [8] = test: Post-emergence herbicidal action against HORMU; assay type: in vivo, Hordeum murinum; details: Hordeum murinum, 504 h; for pest or weed control at 80 g/ha: dosage 80 g/ha
In short: as §2

AMARE = test: Post-emergence herbicidal action against AMARE; assay type: in vivo, Amaranthus retroflexus; details: Amaranthus retroflexus, 504 h, visual assessment about 3 weeks after treatment, 100% = plants have died, 0% = like control plants
In short: as §2

VIOTR = test: Post-emergence herbicidal action against VIOTR; assay type: in vivo, Viola tricolor; details: Viola tricolor, 504 h
In short: as §2

STEME [9] = test: Pre-emergence herbicidal action against STEME; assay type: in vivo, Stellaria media; details: Stellaria media, 504 h; for pest or weed control at 80 g/ha: dosage 80 g/ha; for pest or weed control at 320 g/ha: dosage 320 g/ha
In short: as §1

SETVI = test: Post-emergence herbicidal action against SETVI; assay type: in vivo, Setaria viridis; details: Setaria viridis, 504 h; for pest or weed control at 80 g/ha: dosage 80 g/ha
In short: as §2

ECHCG [10] = test: Post-emergence herbicidal action against ECHCG; assay type: in vivo, Echinochloa crus-galli; details: Echinochloa crus-galli, 504 h; for pest or weed control at 20 g/ha: dosage 20 g/ha; for pest or weed control at 80 g/ha: dosage 80 g/ha
In short: as §2

POLCO [11] = test: Pre-emergence herbicidal action against POLCO; assay type: in vivo, Polygonum convolvulus; details: Fallopia convolvulus, 504 h; for pest or weed control at 80 g/ha: dosage 80 g/ha
In short: as §1

ALOMY = test: Post-emergence herbicidal action against ALOMY; assay type: in vivo, Alopecurus myosuroides; details: Alopecurus myosuroides, 504 h, visual assessment about 3 weeks after treatment vs untreated controls; for pest or weed control at 20 g/ha: dosage 20 g/ha; for pest or weed control at 80 g/ha: dosage 80 g/ha
In short: as §2

STEME [12] = test: Post-emergence herbicidal action against STEME; assay type: in vivo, Stellaria media; details: Stellaria media, 504 h; for pest or weed control at 5 g/ha: dosage 5 g/ha
In short: as §2

VERPE [13] = test: Post-emergence herbicidal action against VERPE; assay type: in vivo, Veronica persica; details: Veronica persica, 504 h
In short: as §2

ECHCG [14] = test: Pre-emergence herbicidal action against ECHCG; assay type: in vivo, Echinochloa crus-galli; details: Echinochloa crus-galli, 504 h
In short: as §1

HORMU [15] = test: Pre-emergence herbicidal action against HORMU; assay type: in vivo, Hordeum murinum; details: Hordeum murinum, 504 h, pre-emergence
In short: as §1

ABUTH [16] = test: Post-emergence herbicidal action against ABUTH; assay type: in vivo, Abutilon theophrasti; details: Abutilon theophrasti, 504 h, visual assessment about 3 weeks after treatment vs untreated controls; for pest or weed control at 5 g/ha: dosage 5 g/ha; for pest or weed control at 20 g/ha: dosage 20 g/ha; for pest or weed control at 80 g/ha: dosage 80 g/ha
In short: as §2

[17] = scored visually after 3 weeks, 100% = plants have died, 0% = like control plants

Compound: CCn1nnnc1NC(=O)c1ccc(Cl)c(C(=O)NC2CC2)c1Cl [Example 2-173]
- pest or weed control at 80 g/ha (ABUTH [1]): 100%
- pest or weed control at 20 g/ha (ABUTH [1]): 90%
- pest or weed control at 80 g/ha (LOLRI; 80 g/ha): 90%
- pest or weed control at 5 g/ha (PHBPU; dosage 5 g/ha): 80%
- pest or weed control at 20 g/ha (PHBPU): 90%
- pest or weed control at 80 g/ha (AVEFA [2]): 100%
- pest or weed control at 20 g/ha (AVEFA [2]; 20 g/ha, scored visually after 3 weeks, 100% = plants have died, 0% = like control plants): 90%
- pest or weed control at 80 g/ha (VERPE [3]): 80%
- pest or weed control at 20 g/ha (MATIN [4]): 100%
- pest or weed control at 20 g/ha (MATIN [5]; dosage 20 g/ha): 100%
- pest or weed control at 80 g/ha (MATIN [5]): 100%
- pest or weed control at 20 g/ha (POLCO [6]; dosage 20 g/ha): 90%
- pest or weed control at 20 g/ha (AVEFA [7]; 20 g/ha): 100%
- pest or weed control at 20 g/ha (HORMU [8]; dosage 20 g/ha): 100%
- pest or weed control at 20 g/ha (AMARE): 100%
- pest or weed control at 20 g/ha (VIOTR): 100%
- pest or weed control at 20 g/ha (STEME [9]; dosage 20 g/ha): 100%
- pest or weed control at 80 g/ha (STEME [9]): 100%
- pest or weed control at 5 g/ha (SETVI; dosage 5 g/ha): 100%
- pest or weed control at 20 g/ha (SETVI; dosage 20 g/ha): 100%
- pest or weed control at 5 g/ha (ECHCG [10]; dosage 5 g/ha): 80%
- pest or weed control at 20 g/ha (ECHCG [10]): 90%
- pest or weed control at 20 g/ha (POLCO [11]; dosage 20 g/ha): 90%
- pest or weed control at 80 g/ha (POLCO [11]): 100%
- pest or weed control at 20 g/ha (ALOMY): 100%
- pest or weed control at 20 g/ha (STEME [12]): 100%
- pest or weed control at 5 g/ha (STEME [12]): 100%
- pest or weed control at 20 g/ha (VERPE [13]): 80%
- pest or weed control at 80 g/ha (ECHCG [14]): 100%
- pest or weed control at 80 g/ha (HORMU [15]): 100%
- pest or weed control at 5 g/ha (ABUTH [16]): 90%
- pest or weed control at 20 g/ha (ABUTH [16]): 100%

Compound: CCCn1nnnc1NC(=O)c1ccc(C(F)(F)F)c(C(N)=O)c1Cl [Example 3-338]
- pest or weed control at 80 g/ha (ABUTH [1]): 100%
- pest or weed control at 320 g/ha (ABUTH [1]): 100%
- pest or weed control at 20 g/ha (ABUTH [1]): 90%
- pest or weed control at 20 g/ha (PHBPU): 80%
- pest or weed control at 80 g/ha (PHBPU): 90%
- pest or weed control at 80 g/ha (AVEFA [2]): 90%
- pest or weed control at 320 g/ha (AVEFA [2]; [17]): 100%
- pest or weed control at 80 g/ha (VERPE [3]): 90%
- pest or weed control at 320 g/ha (VERPE [3]): 100%
- pest or weed control at 80 g/ha (MATIN [4]): 80%
- pest or weed control at 80 g/ha (MATIN [5]): 90%
- pest or weed control at 320 g/ha (MATIN [5]): 100%
- pest or weed control at 80 g/ha (AVEFA [7]): 100%
- pest or weed control at 80 g/ha (HORMU [8]): 100%
- pest or weed control at 20 g/ha (AMARE): 90%
- pest or weed control at 80 g/ha (AMARE): 100%
- pest or weed control at 20 g/ha (VIOTR): 90%
- pest or weed control at 80 g/ha (VIOTR): 100%
- pest or weed control at 80 g/ha (STEME [9]): 90%
- pest or weed control at 320 g/ha (STEME [9]): 100%
- pest or weed control at 80 g/ha (SETVI): 90%
- pest or weed control at 80 g/ha (ECHCG [10]): 80%
- pest or weed control at 80 g/ha (POLCO [11]): 80%
- pest or weed control at 320 g/ha (POLCO [11]; dosage 320 g/ha): 80%
- pest or weed control at 80 g/ha (ALOMY): 100%
- pest or weed control at 20 g/ha (STEME [12]): 100%
- pest or weed control at 80 g/ha (STEME [12]): 100%
- pest or weed control at 5 g/ha (STEME [12]): 80%
- pest or weed control at 20 g/ha (VERPE [13]): 90%
- pest or weed control at 80 g/ha (VERPE [13]): 90%
- pest or weed control at 320 g/ha (ECHCG [14]): 100%
- pest or weed control at 80 g/ha (HORMU [15]): 80%
- pest or weed control at 320 g/ha (HORMU [15]): 100%
- pest or weed control at 5 g/ha (ABUTH [16]): 90%
- pest or weed control at 20 g/ha (ABUTH [16]): 90%
- pest or weed control at 80 g/ha (ABUTH [16]): 100%

Compound: CNC(=O)c1c(C(F)(F)F)ccc(C(=O)Nc2nnnn2C)c1SC [Example 1-81]
- pest or weed control at 80 g/ha (ABUTH [1]): 100%
- pest or weed control at 320 g/ha (ABUTH [1]): 100%
- pest or weed control at 320 g/ha (LOLRI; 320 g/ha): 80%
- pest or weed control at 80 g/ha (PHBPU): 80%
- pest or weed control at 80 g/ha (AVEFA [2]): 90%
- pest or weed control at 320 g/ha (AVEFA [2]; [17]): 100%
- pest or weed control at 320 g/ha (VERPE [3]): 100%
- pest or weed control at 20 g/ha (MATIN [4]): 80%
- pest or weed control at 80 g/ha (MATIN [4]): 100%
- pest or weed control at 80 g/ha (MATIN [5]): 100%
- pest or weed control at 320 g/ha (MATIN [5]): 100%
- pest or weed control at 80 g/ha (POLCO [6]; dosage 80 g/ha): 90%
- pest or weed control at 80 g/ha (AVEFA [7]): 90%
- pest or weed control at 80 g/ha (HORMU [8]): 80%
- pest or weed control at 20 g/ha (AMARE): 90%
- pest or weed control at 80 g/ha (AMARE): 90%
- pest or weed control at 80 g/ha (VIOTR): 80%
- pest or weed control at 80 g/ha (STEME [9]): 100%
- pest or weed control at 320 g/ha (STEME [9]): 100%
- pest or weed control at 80 g/ha (SETVI): 90%
- pest or weed control at 20 g/ha (ECHCG [10]): 80%
- pest or weed control at 80 g/ha (ECHCG [10]): 90%
- pest or weed control at 20 g/ha (ALOMY): 80%
- pest or weed control at 80 g/ha (ALOMY): 90%
- pest or weed control at 20 g/ha (STEME [12]): 90%
- pest or weed control at 80 g/ha (STEME [12]): 90%
- pest or weed control at 20 g/ha (VERPE [13]): 80%
- pest or weed control at 80 g/ha (VERPE [13]): 90%
- pest or weed control at 80 g/ha (ECHCG [14]): 100%
- pest or weed control at 320 g/ha (ECHCG [14]): 100%
- pest or weed control at 80 g/ha (HORMU [15]): 80%
- pest or weed control at 320 g/ha (HORMU [15]): 100%
- pest or weed control at 20 g/ha (ABUTH [16]): 80%
- pest or weed control at 80 g/ha (ABUTH [16]): 90%
